Where “and” joins values, the source holds several entries; their conditions need not be identical. Equal entries are not always repeated. Where two headings read alike, the source gives them in different places. One block for each molecule: values may come before it. Where no end group is shown, it is not given here. [ ]: non-standard residue; d: D form. Bip = N[C@@H](Cc1ccc(-c2ccccc2)cc1)C(=O)O; NMeF = CN[C@@H](Cc1ccccc1)C(=O)O; Ahp(2) = CCCCC[C@H](N)C(=O)O
Columns and labels:
[1] = tested on: Daudi cells; assay: KILR ADCC killing assay: KILR-transfected Daudi cells with purified NK cells (% dead cells); type: cell-based; settings: for % dead cells, KILR ADCC killing assay: KILR Daudi cells with purified NK cells, duplicate columns
Source text: In some embodiments, CD38-ABT ARMs bind to target cells and antibodies, e.g., human antibodies. In some embodiments, such ternary structures present antibodies to effector cells such as NK cell and bind to, e.g., CD16a receptors. […] Daudi cells were transfected with KILR reporter construct (DiscoverX #97-0002). An attenuated lentivirus was designed to deliver a Moloney Murine Leukemia Virus (MMLV) engineered to drive expression of a housekeeping gene tagged with Enhanced ProLabel (ePL) a beta-Galactosidase (beta-gal) reporter fragment. This construct was designed to remain inside cells. Death leads to the release of the KILR reporter protein into the medium. Detection reagent (DiscoverX #97-0001L) contained the complementing beta-gal reporter fragment enzyme acceptor (EA). The two components combined to generate a chemiluminescent signal.

[2] = tested on: Daudi cells; assay: Ternary binding assay: recruitment of PE-labeled human IgG1k to Daudi cells (flow cytometry, MFI); type: cell-based; settings: for MFI, recruitment of PE-labeled human IgG1k to Daudi cells: duplicate columns
Description: Various technologies can be utilized to assess and/or characterize recruitment of antibodies to target cells, e.g., cancer cells. One such assay is a ternary binding assay. An exemplary protocol is described herein. Compounds were diluted in DMSO (MP 191418) to 1000× the starting concentration used in the assay into a 96 well polypropylene plate (Corning 3357). They were then serially diluted in ½ log increments to generate 8-12 concentrations in DMSO (assay dependent). These DMSO stocks were then step diluted 1/100 into PBS (VWR Cat. #20012043). Step diluted compound range was then added into the polypropylene assay plate 1/10 the volume of the assay volume. Daudi (ATCC CCL-213), a non-adherent cell line, were counted and centrifuged and resuspended at a concentration of 100,000 cells per 90 ul in Flow buffer: 1% BSA (American Bio AB01088-00100); 0.5 mM EDTA (VWR 45001-122); PBS (VWR Cat. #20012043) with 11.1 ug/mL human IgG1k Phycoerythrin labeled (SouthernBiotech #0151K-09 PE). The cells were then added into the polypropylene plate with the step diluted compounds and incubated at 37° C. for 30 min. At the end of the incubation, the cells were centrifuged and washed 2× with How buffer containing 0.5% Tween 20 (BP337-500). Samples were analyzed on a BD FacsCelesta. Mean fluorescence was analyzed using Graphpad Prism and curves were fit using log(inhibitor) vs. response—Variable slope (four parameters).

[3] = tested on: Effector cells (ADCC reporter cells) with Daudi cells; assay: ADCC reporter assay: Daudi cells, IVIG and ADCC reporter effector cells (luciferase, RLU); type: cell-based; settings: IVIG; for Luminescence, ADCC reporter assay: 18 h, duplicate columns
Description: Daudi (ATCC CCL-213) cells were resuspended in Opti-MEM (Thermo Fisher Scientific #31985070), counted (Life Technologies Countless II cell counter) and plated (5,000 cells in 25 uL/well; Corning plates: 3917). Compounds w diluted in DMSO (MP 191418) to 1000× the starting concentration used in the assay into a 96 well polypropylene plate (Corning 3357). They were then serially diluted in ½ log increments to generate 8 concentrations in DMSO (assay dependent). These DMSO stocks were then step diluted 1/250 into Opti-MEM. Step diluted compound range was then added into the polypropylene assay plate 25 uL/well. The human antibody solution (Grifols IVIG Fleogogamma #61953-0005-2) was diluted to 40 ug/mL and added 25 uL/well. Effector cells (ADCC reporter cells—Promega kit: G7018) were added 37,500 in 25 uL/well. The assay was then incubated 18 h at 37° C. Following the induction period, the plate was equilibrated to 25° C. followed the addition of the luciferase substrate (75 uL/well, 1 vial in 10 mL of Bio-Glo assay buffer, Promega kit: G7018). The luminescence was measured (Biotek Synergy H1 microplate reader).

[4] = molecular target: T1, CD38 (human, UniProt P28907 43-300, limits assumed); assay: ELISA; larger values represent binding
T1 construct: also called cluster of differentiation 38; cyclic ADP ribose hydrolase

[5] = molecular target: T1, CD38; assay: ELISA; larger values represent binding; remark: listed apart in the source

Molecule: I-38: "A mixture of compound 6 ... compound 2 ... DIEA ... to get compound I-38 (Q1 ...) and compound I-38 (Q2 ...)" (ARXYHDGVLXXDCXXXKXDCAWHLGELVWCT; not fully specified; D-residues; cyclised or stapled)
- EC50 ([1]; KILR ADCC killing assay, Daudi cells with purified NK cells): > 3000 nM
- % dead cells, KILR ADCC killing assay ([1]; compound 1 nM): 10.4% and 10.9%
- % dead cells, KILR ADCC killing assay ([1]; compound 3 nM): 10.2% and 10.7%
- % dead cells, KILR ADCC killing assay ([1]; compound 30 nM): 10.6% and 11.6%
- % dead cells, KILR ADCC killing assay ([1]; compound 100 nM): 10.9%
- % dead cells, KILR ADCC killing assay ([1]; compound 300 nM): 10.9% and 11.1%
- % dead cells, KILR ADCC killing assay ([1]; compound 1000 nM): 11.4% and 11.7%
- % dead cells, KILR ADCC killing assay ([1]; compound 3000 nM): 10.3% and 10.8%
- IC50 ([2]; ternary binding assay, Daudi cells, human IgG1k PE): > 3000 nM

Molecule: CCCCC[C@@H]1NC(=O)[C@H](CCCNC(=N)N)NC(=O)[C@H](C)NC(=O)CSC[C@@H](C(=O)NCCOCCOCCC(=O)NCCOCCOCCC(=O)N[C@@H](CC(=O)O)C(=O)N[C@H]2CSSC[C@@H](C(=O)N[C@H](C(=O)O)[C@@H](C)O)NC(=O)[C@H](Cc3c[nH]c4ccccc34)NC(=O)[C@H](C(C)C)NC(=O)[C@H](CC(C)C)NC(=O)[C@H](CCC(=O)O)NC(=O)CNC(=O)[C@H](CC(C)C)NC(=O)[C@H](Cc3c[nH]cn3)NC(=O)[C@H](Cc3c[nH]c4ccccc34)NC(=O)[C@H](C)NC2=O)NC(=O)[C@H](CC(=O)O)NC(=O)[C@H](CCCCC)NC(=O)[C@H](Cc2ccc(-c3ccccc3)cc2)NC(=O)[C@H](CC(C)C)NC(=O)[C@H](C(C)C)NC(=O)CNC(=O)[C@H](CC(=O)O)NC(=O)[C@H](Cc2c[nH]cn2)NC(=O)[C@H](Cc2ccc(O)cc2)NC1=O [I-34]
- % dead cells, KILR ADCC killing assay ([1]; compound 1 nM): 13.9% and 15.8%
- % dead cells, KILR ADCC killing assay ([1]; compound 3 nM): 13.6% and 13.4%
- % dead cells, KILR ADCC killing assay ([1]; compound 10 nM): 14.9% and 14.5%
- % dead cells, KILR ADCC killing assay ([1]; compound 30 nM): 17.8% and 16.4%
- % dead cells, KILR ADCC killing assay ([1]; compound 100 nM): 19.7% and 16.9%
- % dead cells, KILR ADCC killing assay ([1]; compound 300 nM): 18.9% and 18.8%
- % dead cells, KILR ADCC killing assay ([1]; compound 1000 nM): 15.3% and 15.9%
- % dead cells, KILR ADCC killing assay ([1]; compound 3000 nM): 14.2% and 13.5%
- EC50 ([3]; ADCC reporter assay): 6.7 nM
- Luminescence, ADCC reporter assay ([3]; compound 1 nM): 4355 RLU and 4667 RLU
- Luminescence, ADCC reporter assay ([3]; compound 3 nM): 5459 RLU and 5627 RLU
- Luminescence, ADCC reporter assay ([3]; compound 10 nM): 13353 RLU and 13815 RLU
- Luminescence, ADCC reporter assay ([3]; compound 30 nM): 16833 RLU and 17160 RLU
- Luminescence, ADCC reporter assay ([3]; compound 100 nM): 19999 RLU and 21759 RLU
- Luminescence, ADCC reporter assay ([3]; compound 300 nM): 19948 RLU and 20759 RLU
- Luminescence, ADCC reporter assay ([3]; compound 1000 nM): 12953 RLU and 13376 RLU
- Luminescence, ADCC reporter assay ([3]; compound 3000 nM): 8601 RLU and 9733 RLU
- MFI, recruitment of PE-labeled human IgG1k to Daudi cells ([2]; compound 3 nM): 2094 and 1853
- MFI, recruitment of PE-labeled human IgG1k to Daudi cells ([2]; compound 10 nM): 11368 and 6266
- MFI, recruitment of PE-labeled human IgG1k to Daudi cells ([2]; compound 30 nM): 15113 and 15626
- MFI, recruitment of PE-labeled human IgG1k to Daudi cells ([2]; compound 100 nM): 30043 and 19748
- MFI, recruitment of PE-labeled human IgG1k to Daudi cells ([2]; compound 300 nM): 24939 and 24944
- MFI, recruitment of PE-labeled human IgG1k to Daudi cells ([2]; compound 1000 nM): 27313 and 25699
- MFI, recruitment of PE-labeled human IgG1k to Daudi cells ([2]; compound 3000 nM): 19464 and 23695

- Binding Assay (ELISA signal) [4]: 0.3
B1: A R Ahp Y H D G A L Bph Ahp D C (peptide)
peptide: AR[Ahp(2)]YHDGAL[Bip][Ahp(2)]DC
modifications: not fully specified (N-terminus, bridges); printed as A R Ahp Y H D G A L Bph Ahp D C
notes: Alanine variant at position 8

- Binding Assay (ELISA signal) [5]: 0.84
B2: A A H MeF V L P Bph V W V C (peptide)
peptide: AAH[NMeF]VLP[Bip]VWVC
modifications: not fully specified (N-terminus, bridges); printed as A A H MeF V L P Bph V W V C

- Binding Assay (ELISA signal) [4]: 0.11
B3: A R Ahp A H D G V L Bph Ahp D C (peptide)
peptide: AR[Ahp(2)]AHDGVL[Bip][Ahp(2)]DC
modifications: not fully specified (N-terminus, bridges); printed as A R Ahp A H D G V L Bph Ahp D C
notes: Alanine variant at position 4

- Binding Assay (ELISA signal) [4]: 0.93
B4: A R Ahp Y H A G V L Bph Ahp D C (peptide)
peptide: AR[Ahp(2)]YHAGVL[Bip][Ahp(2)]DC
modifications: not fully specified (N-terminus, bridges); printed as A R Ahp Y H A G V L Bph Ahp D C
notes: Alanine variant at position 6

- Binding Assay (ELISA signal) [4]: 1.79
B5: A R Ahp Y H D G V L Bph Ahp A C (peptide)
peptide: AR[Ahp(2)]YHDGVL[Bip][Ahp(2)]AC
modifications: not fully specified (N-terminus, bridges); printed as A R Ahp Y H D G V L Bph Ahp A C
notes: Alanine variant at position 12

- Binding Assay (ELISA signal) [4]: 0.2
B6: A R Ahp Y H D G V L Bph A D C (peptide)
peptide: AR[Ahp(2)]YHDGVL[Bip]ADC
modifications: not fully specified (N-terminus, bridges); printed as A R Ahp Y H D G V L Bph A D C
notes: Alanine variant at position 11

- Binding Assay (ELISA signal) [4]: 0.28
B7: A R Ahp Y A D G V L Bph Ahp D C (peptide)
peptide: AR[Ahp(2)]YADGVL[Bip][Ahp(2)]DC
modifications: not fully specified (N-terminus, bridges); printed as A R Ahp Y A D G V L Bph Ahp D C
notes: Alanine variant at position 5

- Binding Assay (ELISA signal) [4]: 1.49
B8: A R Ahp Y H D A V L Bph Ahp D C (peptide)
peptide: AR[Ahp(2)]YHDAVL[Bip][Ahp(2)]DC
modifications: not fully specified (N-terminus, bridges); printed as A R Ahp Y H D A V L Bph Ahp D C
notes: Alanine variant at position 7

- Binding Assay (ELISA signal) [4]: 0.09
B9: A R Ahp Y H D G V L A Ahp D C (peptide)
peptide: AR[Ahp(2)]YHDGVLA[Ahp(2)]DC
modifications: not fully specified (N-terminus, bridges); printed as A R Ahp Y H D G V L A Ahp D C
notes: Alanine variant at position 10

- Binding Assay (ELISA signal) [4]: 0.08
B10: A R Ahp Y H D G V A Bph Ahp D C (peptide)
peptide: AR[Ahp(2)]YHDGVA[Bip][Ahp(2)]DC
modifications: not fully specified (N-terminus, bridges); printed as A R Ahp Y H D G V A Bph Ahp D C
notes: Alanine variant at position 9

- Binding Assay (ELISA signal) [4]: 0.11
B11: A R A Y H D G V L Bph Ahp D C (peptide)
peptide: ARAYHDGVL[Bip][Ahp(2)]DC
modifications: not fully specified (N-terminus, bridges); printed as A R A Y H D G V L Bph Ahp D C
notes: Alanine variant at position 3

- Binding Assay (ELISA signal) [5]: 0.37
B12: A L A MeF V L P Bph V W V C (peptide)
peptide: ALA[NMeF]VLP[Bip]VWVC
modifications: not fully specified (N-terminus, bridges); printed as A L A MeF V L P Bph V W V C
notes: Alanine variant at position 3

- Binding Assay (ELISA signal) [4]: 0.6
B13: A A Ahp Y H D G V L Bph Ahp D C (peptide)
peptide: AA[Ahp(2)]YHDGVL[Bip][Ahp(2)]DC
modifications: not fully specified (N-terminus, bridges); printed as A A Ahp Y H D G V L Bph Ahp D C

— patent US20230028880A1, “CD38-BINDING AGENTS AND USES THEREOF” (Biohaven Therapeutics Ltd., priority 2019, published 2023)
